Test results: US20100075370A1, “METHOD FOR DETERMINATION OF CELL VIABILITY BY USING FLOW CYTOMETRY WITH FIXED VOLUME ACQUISITION” (TUMORTEC GMBH, priority 2006, published 2010)

Test system: pBMC from patients with CLL
Experiment: Cytotoxicity of several antineoplastic agents on pBMC (LC90), fixed volume flow cytometry
Type: cell-based, human
Conditions: in µg/mL
Source text: The necessary peripheral blood (PB) samples from adult patients diagnosed with chronic lymphatic leukaemia (CLL) were collected into heparin during routine diagnosis prior to administration of chemotherapy.

[1] = pBMC of CLL patient #1, ex vivo
[2] = pBMC of CLL patient #2, ex vivo
[3] = pBMC of CLL patient #3, ex vivo
[4] = pBMC of CLL patient #4, ex vivo
[5] = pBMC of CLL patient #5, ex vivo
[6] = pBMC of CLL patient #6, ex vivo
[7] = pBMC of CLL patient #7, ex vivo
[8] = pBMC of CLL patient #8, ex vivo
[9] = pBMC of CLL patient #9, ex vivo
[10] = pBMC of CLL patient #10, ex vivo
[11] = pBMC of CLL patient #11, ex vivo
[12] = pBMC of CLL patient #12, ex vivo
[13] = pBMC of CLL patient #13, ex vivo
[14] = pBMC of CLL patient #14, ex vivo
[15] = pBMC of CLL patient #15, ex vivo
[16] = pBMC of CLL patient #16, ex vivo
[17] = pBMC of CLL patient #17, ex vivo
[18] = pBMC of CLL patient #18, ex vivo
[19] = pBMC of CLL patient #19, ex vivo
[20] = pBMC of CLL patient #20, ex vivo
[21] = pBMC of CLL patient #21, ex vivo
[22] = pBMC of CLL patient #22, ex vivo
[23] = pBMC of CLL patient #23, ex vivo
[24] = pBMC of CLL patient #24, ex vivo
[25] = pBMC of CLL patient #25, ex vivo

Row | SMILES | LC90 [1] | LC90 [2] | LC90 [3] | LC90 [4] | LC90 [5] | LC90 [6] | LC90 [7] | LC90 [8] | LC90 [9] | LC90 [10] | LC90 [11] | LC90 [12] | LC90 [13] | LC90 [14] | LC90 [15] | LC90 [16] | LC90 [17] | LC90 [18] | LC90 [19] | LC90 [20] | further results
1 | Nc1nc(Cl)nc2c1ncn2[C@H]1C[C@H](O)[C@@H](CO)O1 [Cladribine ®, Cladribine] | 0.185 | 0.184 | 0.159 | 0.107 | 0.083 | 0.080 | 0.063 | 0.059 | 0.052 | 0.048 | 0.047 | 0.040 | 0.029 | 0.027 | 0.024 | 0.017 | 0.015 | 0.013 | 0.007 | 0.006 | LC90 [21]: 0.005; LC90 [22]: 0.004; LC90 [23]: 0.000; LC90 [24]: 8.100; LC90 [25]: 1.967
2 | O=C1c2c(O)ccc(O)c2C(=O)c2c(NCCNCCO)ccc(NCCNCCO)c21 [Novantrone ®, Mitoxantrone] | 0.06 | 0.03 | 0.19 | 0.15 | 0.11 | 13.37 | 0.14 | 0.02 | 0.10 | 0.05 | 12.80 | 0.06 | 0.40 | 0.09 | 0.05 | 0.01 | 0.03 | 0.08 | 0.07 | 0.02 | LC90 [21]: 0.05; LC90 [22]: 0.05; LC90 [23]: 0.01; LC90 [24]: 12.77; LC90 [25]: 0.17
3 | CC[C@]1(O)C[C@H]2CN(CCc3c([nH]c4ccccc34)[C@@](C(=O)OC)(c3cc4c(cc3OC)N(C=O)[C@H]3[C@@](O)(C(=O)OC)[C@H](OC(C)=O)[C@]5(CC)C=CCN6CC[C@]43[C@@H]65)C2)C1 [Oncovin ®, Vincristin] | 2.51 | 0.47 | 0.14 | 10.96 | 0.33 | 0.07 | 0.88 | 10.23 | 0.47 | 0.41 | 0.21 | 0.97 | 0.24 | 0.04 | 0.44 | 0.13 | 0.41 | 0.70 | 0.10 | 0.42 | LC90 [21]: 0.10; LC90 [22]: 0.30; LC90 [23]: 0.08; LC90 [24]: 61.57; LC90 [25]: 0.23
4 | C[C@]12C=CC(=O)C=C1CC[C@@H]1[C@@H]2[C@@H](O)C[C@@]2(C)[C@H]1CC[C@]2(O)C(=O)CO [Prednisolone ®, Prednisolone] | 40.69 | 21.96 | 12.17 | 2.25 | 12.67 | 0.88 | 35.35 | 29.81 | 33.00 | 11.71 | 0.46 | 0.86 | 2.56 | 0.56 | 0.82 | 0.19 | 35.69 | 0.51 | 0.98 | 99.92 | LC90 [21]: 0.54; LC90 [22]: 12.76; LC90 [23]: 0.82; LC90 [24]: 48.18; LC90 [25]: 0.48
